Consider one compound from US20200385396A1, “Compond for treatment or prevention of obesity or diseases related to obesity, and application thereof” (SHANGHAI INSTITUTES FOR BIOLOGICAL SCIENCES, CHINESE …, priority 2017, published 2020).

The subject of one test is Wnt signal. The test can be described thus: TOPFlash reporter gene activity test in HEK293T cells. Type of test: cell-based. How it is done:
The HEK293T cells used for the measurement of reporter gene activity were plated at 20 hours before transfection and cultured to about 50% coverage for the transfection. The transfection method was as described above. For HEK293T cells, transfection was performed according to 20 ng TOPFlash, 20 ng GFP and 460 ng lacZ per well, and Wnt3a or Nesfatin-1/NUCB2 protein was added at 18 hours after transfection to stimulate for 6-8 hours, and the cell was lysed with Boehringer Mannheim Luciferase Assay Kit (200 μl/well) for 15 minutes, 50 μl lysate was added in the fluorometer BIO-TEK Synergy2 (Gene Company Limited) to measure the GFP fluorescence intensity in the cell lysate as an internal standard, and then 20 μl luciferase substrate (Roche) was added for the reaction, the luciferase activity was detected in the chemiluminescence channel, and finally the GFP reading was used as an internal standard for homogenization.
We focus on the three small molecules HLY72, HLY103, and HSS49A (FIG. 3a). […] So that the first biochemical experiment design is: whether these three small molecules can compete for the binding of HLY179 to NUCB2 protein.
A general note: A reporter such as luciferase makes a cellular process visible.

Test [1] relates to obese mice fed with high-fat diet (DIO). Briefly: Metabolic cage, obese mice fed with high-fat diet (DIO). Type of test: in vivo, mouse. Conditions: 20 mg/kg. The method, then:
(§1) Before starting the metabolic cage experiment, the mice were fed in a single cage for 1 week. After a one-week single cage adaptation period, three days before the start of the small molecule compound injection, the mice were injected with 25 μL of DMSO within 2 hours before turning off the lights every afternoon, allowing them to adapt to the injection for 3 days. After 3 days of injection, the acclimated mice were put into the metabolic cage. Starting from the same day, 25 μL of DMSO and HLY72 (20 mg/kg) were injected within 2 hours before turning off the lights for 3 consecutive days.
(§2) Next, the effect of HLY72 on the metabolism of mice is studied. We use two methods: (1) the relevant metabolic indexes of the mice are directly measured using the metabolic cage, and (2) the expression of the relevant key metabolic genes is detected. three metabolic parameters are obtained through the metabolic cage experiment: (1) Energy expenditure (EE), energy output is an important aspect of energy balance, under conditions such as restricted diet and fasting, mice will reduce basic metabolism, reduce energy expenditure; (2) respiratory exchange ratio (RER), based on the ratio calculated by CO2 produced and the use of 02, RER of 1 means that carbohydrates is mainly used as energy, RER of 0.7 means that fat is mainly used as fuel; (3) physical activity (Activity).

Another test addresses T1, NUCB2 protein (Mus musculus, UniProt P81117).
T1 construct: Immediately the mouse full-length NUCB2 protein expressed in E. coli was purified; His tag (inferred from pET-28A vector, Ni-NTA purification and His antibody); made in house; host or cells: E. coli BL21-CodonPlus (DE3)
T1 sequence (P81117 25-420): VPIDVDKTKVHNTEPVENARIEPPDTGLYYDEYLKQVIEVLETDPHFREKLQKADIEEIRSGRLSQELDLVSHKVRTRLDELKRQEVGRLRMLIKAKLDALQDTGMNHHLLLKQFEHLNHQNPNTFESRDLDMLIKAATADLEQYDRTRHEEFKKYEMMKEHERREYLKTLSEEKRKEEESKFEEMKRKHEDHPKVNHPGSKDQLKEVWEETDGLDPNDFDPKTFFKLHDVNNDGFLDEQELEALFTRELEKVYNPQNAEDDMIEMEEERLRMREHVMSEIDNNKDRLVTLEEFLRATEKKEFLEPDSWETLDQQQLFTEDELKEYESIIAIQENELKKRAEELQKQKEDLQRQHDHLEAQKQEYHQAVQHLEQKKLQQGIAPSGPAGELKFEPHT
The test can be described thus: Competitive binding experiment: small molecules compete with Bio78 (HLY179) for NUCB2. Conditions: competitor final concentration 100 μM; HLY179 20 μM. The method, then:
When doing the combining experiments, (1) pre-treating Streptavidin-Agarose, washing Streptavidin-Agarose Beads with IP buffer, and spinning it on the rotor for 10 minutes. (2) Re-binding small molecules HLY179 (20 μM) and Streptavidin-Agarose Beads, spinning it in a refrigeration house at 4° C. for 1-2 hours. (3) When the previous step was performed for about 1 hour, the protein was pre-cleared at the same time, and the protein and the washed Streptavidin-Agarose were rotated in a refrigeration house at 4° C. for 30 minutes. (4) the Streptavidin-Agarose Beads binded with HLY179 was centrifuged, the supernatant was removed, washed again with 600 μL of IP buffer (rotated at 4° C. for 3 minutes), centrifuged, and the supernatant was removed carefully. (5) the pre-cleard protein was added and rotated in a refrigeration house at 4° C. for 2 hours. Washd twice with IP buffer 800 μL, 2 minutes each time (all rotated in a refrigeration house at 4° C.). After the last wash, the supernatant was removed, 40 μL of 2*loading was added and cooked for 10 minutes, stored at −20° C. When doing competitive binding experiments, in the third step while pre-treating the protein adding different small molecule compounds, the final concentration was 100 μM, and the rest was the same. Western Blot: Preparing the appropriate concentration of SDS-PAGE gel, adding protein sample for electrophoretic separation. […]

For the next test, the system named is normal-fed mice (Lean). The test can be described thus: Metabolic cage, normal-fed mice (Lean). Type of test: in vivo, mouse. Conditions: for respiratory exchange rate / physical activity: 20 mg/kg. The method, then:
as §1, §2

Structures are written as SMILES.

For `C=Cc1cccc2c1N(C)Cc1cc3c(cc1-2)OCO3` [HLY72], the “activity of Wnt signal activation” value with Wnt signal is reported as “none of them have the activity of Wnt signal activation”. Moreover, the physical activity result in test [1] (at night) is “significantly reduced”; in test [1] (during the day), “no change”; with normal-fed mice (Lean) (daytime), “does not affect”; in the test on normal-fed mice (Lean) (night), “decreased”. For the same compound, the energy expenditure entry in test [1] (at night and during the day) is “significantly reduced”; in the test with normal-fed mice (Lean) (20 mg/kg once a day, night (dark) and day (light)) it was “significantly reduces”. The “respiratory exchange rate compared with the DMSO group” value in test [1] (at night and during the day) is given as “significantly reduced”. Also, the “compete with Bio78 for binding to NUCB2” value at NUCB2 protein is reported as “can also compete”. Besides, the respiratory exchange rate entry in the test on normal-fed mice (Lean) (at night) is recorded as “significantly reduced”; with normal-fed mice (Lean) (during the day), “no change”.
